In ChEMBL document CHEMBL1201862, “PubChem BioAssay data set” (2004):
The source made the active and inactive calls.

Legend:
[1] = molecular target: T1, Tyrosine-protein phosphatase non-receptor type 7 (Homo sapiens, UniProt P35236); format: functional
T1 sequence (P35236 whole entry): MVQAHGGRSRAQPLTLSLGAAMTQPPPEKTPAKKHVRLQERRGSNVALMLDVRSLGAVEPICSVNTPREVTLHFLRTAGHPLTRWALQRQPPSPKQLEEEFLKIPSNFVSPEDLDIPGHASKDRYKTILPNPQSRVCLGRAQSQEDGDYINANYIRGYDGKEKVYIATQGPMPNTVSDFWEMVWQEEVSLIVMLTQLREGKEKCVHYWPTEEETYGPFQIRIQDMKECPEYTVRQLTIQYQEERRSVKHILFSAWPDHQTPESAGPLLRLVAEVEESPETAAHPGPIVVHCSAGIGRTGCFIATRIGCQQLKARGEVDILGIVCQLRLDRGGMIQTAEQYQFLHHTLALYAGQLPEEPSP

[2] = molecular target: T2, Tyrosine-protein phosphatase non-receptor type 22 (Homo sapiens, UniProt Q9Y2R2); format: functional
T2 sequence (Q9Y2R2 whole entry): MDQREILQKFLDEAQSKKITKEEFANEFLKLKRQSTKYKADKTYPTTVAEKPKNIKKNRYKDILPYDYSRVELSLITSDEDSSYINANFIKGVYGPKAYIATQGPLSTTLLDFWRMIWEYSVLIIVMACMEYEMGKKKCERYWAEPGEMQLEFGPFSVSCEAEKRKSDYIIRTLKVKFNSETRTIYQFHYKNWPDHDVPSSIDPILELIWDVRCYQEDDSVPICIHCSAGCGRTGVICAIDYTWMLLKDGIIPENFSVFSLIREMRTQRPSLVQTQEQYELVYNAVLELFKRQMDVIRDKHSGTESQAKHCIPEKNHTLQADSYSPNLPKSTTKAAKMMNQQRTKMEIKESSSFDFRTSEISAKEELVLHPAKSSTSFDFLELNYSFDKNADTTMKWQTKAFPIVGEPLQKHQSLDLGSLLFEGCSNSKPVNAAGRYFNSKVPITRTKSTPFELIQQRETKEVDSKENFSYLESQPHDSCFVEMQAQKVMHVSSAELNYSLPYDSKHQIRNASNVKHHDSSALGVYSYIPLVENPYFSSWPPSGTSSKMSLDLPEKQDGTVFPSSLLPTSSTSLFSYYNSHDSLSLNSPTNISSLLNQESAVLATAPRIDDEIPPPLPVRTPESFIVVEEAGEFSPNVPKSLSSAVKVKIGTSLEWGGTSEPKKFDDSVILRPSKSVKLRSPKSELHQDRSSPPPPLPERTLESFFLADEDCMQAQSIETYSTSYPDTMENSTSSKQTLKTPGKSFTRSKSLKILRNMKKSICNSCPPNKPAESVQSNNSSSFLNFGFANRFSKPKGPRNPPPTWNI

[3] = molecular target: T2, Tyrosine-protein phosphatase non-receptor type 22; format: functional; remark: listed apart in the source
Hexokinase = Hexokinase (Trypanosoma brucei, UniProt Q38C41); assay: Confirmation assay for inhibitors of Trypanosoma brucei hexokinase 1-Analogue-first series. [Related pubchem assays (depositor defined):AID1430, AID1632, AID2516, AID2560, AID2579, AID2600, AID449725, AID492951]; format: functional
Chain of Hexokinase (Q38C41 whole entry): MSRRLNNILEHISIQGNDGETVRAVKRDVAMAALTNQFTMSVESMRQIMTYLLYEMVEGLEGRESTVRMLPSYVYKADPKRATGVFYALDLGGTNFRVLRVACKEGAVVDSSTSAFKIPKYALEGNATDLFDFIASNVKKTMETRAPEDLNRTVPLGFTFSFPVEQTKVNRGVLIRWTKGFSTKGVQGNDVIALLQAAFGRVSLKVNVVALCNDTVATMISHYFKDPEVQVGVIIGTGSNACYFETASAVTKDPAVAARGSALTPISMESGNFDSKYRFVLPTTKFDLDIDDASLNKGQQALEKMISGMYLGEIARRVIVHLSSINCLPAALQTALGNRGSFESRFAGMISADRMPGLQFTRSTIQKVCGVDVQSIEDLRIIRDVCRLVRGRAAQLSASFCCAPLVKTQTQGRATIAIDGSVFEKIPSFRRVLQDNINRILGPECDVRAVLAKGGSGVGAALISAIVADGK

[4] = molecular target: T3, Heat shock factor protein 1 (Mus musculus, UniProt P38532); assay: enhancement of HSF1-driven luciferase signal – cell-based, NIH3T3, luminescence, dose retest, confirmation (AID 435004); format: functional;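 further: stress induced by proteasome inhibitor MG132 added 30 min after compound; luciferase reporter driven by HSF1 response element in NIH3T3 cells; actives raise luminescence as potentiators of the MG132 stress response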
T3 sequence (P38532 whole entry): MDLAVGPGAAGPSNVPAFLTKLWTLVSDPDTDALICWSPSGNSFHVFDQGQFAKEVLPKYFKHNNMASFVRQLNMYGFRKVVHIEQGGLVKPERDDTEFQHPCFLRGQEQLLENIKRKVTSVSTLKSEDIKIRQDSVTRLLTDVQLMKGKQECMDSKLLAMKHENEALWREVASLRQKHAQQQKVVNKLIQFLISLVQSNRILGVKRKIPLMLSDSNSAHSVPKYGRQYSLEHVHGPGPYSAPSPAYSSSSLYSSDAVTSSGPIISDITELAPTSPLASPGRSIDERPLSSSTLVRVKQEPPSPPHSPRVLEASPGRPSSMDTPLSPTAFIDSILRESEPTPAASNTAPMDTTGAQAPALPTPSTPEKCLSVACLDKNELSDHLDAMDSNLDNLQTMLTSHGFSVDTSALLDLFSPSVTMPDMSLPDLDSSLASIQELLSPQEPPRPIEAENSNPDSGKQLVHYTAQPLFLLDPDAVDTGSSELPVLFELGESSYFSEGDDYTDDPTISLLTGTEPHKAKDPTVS

HeLa = assay: viability loss in HeLa cells – cell-based, 24 h, cherry-picked samples, cytotoxicity control, dose response (AID 504726); format: functional; conditions: Homo sapiens;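 further: potency for cytotoxicity as loss of luminescence signal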
[5] = molecular target: DNA dC->dU-editing enzyme APOBEC-3G (Homo sapiens, UniProt Q9HC16); format: functional;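 further: Dose-response counterscreen measuring inhibition of APOBEC3G DNA deaminase activity, run while confirming APOBEC3A inhibitors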
Chain of DNA dC->dU-editing enzyme APOBEC-3G (Q9HC16 whole entry): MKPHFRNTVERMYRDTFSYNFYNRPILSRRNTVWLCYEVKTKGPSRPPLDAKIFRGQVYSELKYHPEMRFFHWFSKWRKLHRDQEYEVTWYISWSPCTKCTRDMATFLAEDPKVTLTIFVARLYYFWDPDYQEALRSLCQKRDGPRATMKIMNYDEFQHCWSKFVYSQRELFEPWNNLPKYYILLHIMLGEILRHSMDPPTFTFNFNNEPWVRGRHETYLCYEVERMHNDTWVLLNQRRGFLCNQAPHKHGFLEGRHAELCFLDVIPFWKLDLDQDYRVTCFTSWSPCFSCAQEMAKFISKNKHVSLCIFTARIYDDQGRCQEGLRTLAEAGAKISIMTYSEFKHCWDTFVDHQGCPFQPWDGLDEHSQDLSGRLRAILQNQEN

[6] = molecular target: DNA dC->dU-editing enzyme APOBEC-3A (Homo sapiens, UniProt P31941); assay: Dose Response confirmation of small molecule APOBEC3A DNA Deaminase Inhibitors via a fluorescence-based single-stranded DNA deaminase assay. [Related pubchem assays (depositor defined):AID493011, AID493024]; format: functional
Chain of DNA dC->dU-editing enzyme APOBEC-3A (P31941 whole entry): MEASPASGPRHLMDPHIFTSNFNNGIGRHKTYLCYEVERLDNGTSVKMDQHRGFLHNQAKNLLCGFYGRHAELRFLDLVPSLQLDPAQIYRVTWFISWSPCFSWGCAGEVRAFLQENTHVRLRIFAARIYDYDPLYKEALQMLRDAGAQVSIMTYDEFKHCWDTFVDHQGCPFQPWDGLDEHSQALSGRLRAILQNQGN

[7] = molecular target: T4, Eukaryotic translation initiation factor 2-alpha kinase 3 (Homo sapiens, UniProt Q9NZJ5); assay: Dose response cell-based high-throughput screening assay to measure PERK inhibition. [Related pubchem assays: 1416 ]; format: functional
T4 sequence (Q9NZJ5 whole entry): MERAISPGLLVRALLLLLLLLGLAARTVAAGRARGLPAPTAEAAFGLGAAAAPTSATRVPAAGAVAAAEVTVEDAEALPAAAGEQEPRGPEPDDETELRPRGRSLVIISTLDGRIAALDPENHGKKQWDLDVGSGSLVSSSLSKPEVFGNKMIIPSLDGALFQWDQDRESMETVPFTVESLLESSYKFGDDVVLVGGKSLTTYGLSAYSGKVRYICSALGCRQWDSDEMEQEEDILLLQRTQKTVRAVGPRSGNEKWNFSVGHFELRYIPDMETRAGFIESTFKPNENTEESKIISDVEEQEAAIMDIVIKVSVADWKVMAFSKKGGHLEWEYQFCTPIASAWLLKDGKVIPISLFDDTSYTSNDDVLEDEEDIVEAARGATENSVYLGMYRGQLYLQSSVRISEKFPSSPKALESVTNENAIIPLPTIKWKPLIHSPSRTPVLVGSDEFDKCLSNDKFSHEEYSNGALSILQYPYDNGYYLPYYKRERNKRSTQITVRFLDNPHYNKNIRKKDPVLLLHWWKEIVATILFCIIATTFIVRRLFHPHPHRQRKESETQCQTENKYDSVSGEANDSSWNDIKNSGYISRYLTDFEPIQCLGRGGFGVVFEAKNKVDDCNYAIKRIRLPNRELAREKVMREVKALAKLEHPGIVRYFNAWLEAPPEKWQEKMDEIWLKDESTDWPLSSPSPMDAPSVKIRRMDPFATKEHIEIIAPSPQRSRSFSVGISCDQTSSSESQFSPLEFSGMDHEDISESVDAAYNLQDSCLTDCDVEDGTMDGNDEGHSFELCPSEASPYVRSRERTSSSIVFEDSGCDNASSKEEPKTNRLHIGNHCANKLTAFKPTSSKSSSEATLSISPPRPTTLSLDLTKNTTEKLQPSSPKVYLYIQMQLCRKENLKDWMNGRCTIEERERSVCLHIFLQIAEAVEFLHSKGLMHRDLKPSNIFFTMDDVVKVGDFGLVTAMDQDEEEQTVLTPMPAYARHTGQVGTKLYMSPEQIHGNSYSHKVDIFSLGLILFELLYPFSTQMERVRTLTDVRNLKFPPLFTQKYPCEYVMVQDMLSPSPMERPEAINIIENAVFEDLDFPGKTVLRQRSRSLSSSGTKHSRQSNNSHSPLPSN

[8] = molecular target: T4, Eukaryotic translation initiation factor 2-alpha kinase 3; assay: Counterscreen assay for PERK inhibitors: Dose response cell-based high throughput screening assay to measure inhibition of PERK at 6 hours. [Related pubchem assays: 1522, 1416 ]; format: functional
[9] = molecular target: T5, Voltage-gated N-type calcium channel alpha-1B subunit/Amyloid beta A4 precursor protein-binding family A member 1 (Homo sapiens, UniProt Q00975+Q02410); format: protein assay
T5 sequence (Q00975 whole entry): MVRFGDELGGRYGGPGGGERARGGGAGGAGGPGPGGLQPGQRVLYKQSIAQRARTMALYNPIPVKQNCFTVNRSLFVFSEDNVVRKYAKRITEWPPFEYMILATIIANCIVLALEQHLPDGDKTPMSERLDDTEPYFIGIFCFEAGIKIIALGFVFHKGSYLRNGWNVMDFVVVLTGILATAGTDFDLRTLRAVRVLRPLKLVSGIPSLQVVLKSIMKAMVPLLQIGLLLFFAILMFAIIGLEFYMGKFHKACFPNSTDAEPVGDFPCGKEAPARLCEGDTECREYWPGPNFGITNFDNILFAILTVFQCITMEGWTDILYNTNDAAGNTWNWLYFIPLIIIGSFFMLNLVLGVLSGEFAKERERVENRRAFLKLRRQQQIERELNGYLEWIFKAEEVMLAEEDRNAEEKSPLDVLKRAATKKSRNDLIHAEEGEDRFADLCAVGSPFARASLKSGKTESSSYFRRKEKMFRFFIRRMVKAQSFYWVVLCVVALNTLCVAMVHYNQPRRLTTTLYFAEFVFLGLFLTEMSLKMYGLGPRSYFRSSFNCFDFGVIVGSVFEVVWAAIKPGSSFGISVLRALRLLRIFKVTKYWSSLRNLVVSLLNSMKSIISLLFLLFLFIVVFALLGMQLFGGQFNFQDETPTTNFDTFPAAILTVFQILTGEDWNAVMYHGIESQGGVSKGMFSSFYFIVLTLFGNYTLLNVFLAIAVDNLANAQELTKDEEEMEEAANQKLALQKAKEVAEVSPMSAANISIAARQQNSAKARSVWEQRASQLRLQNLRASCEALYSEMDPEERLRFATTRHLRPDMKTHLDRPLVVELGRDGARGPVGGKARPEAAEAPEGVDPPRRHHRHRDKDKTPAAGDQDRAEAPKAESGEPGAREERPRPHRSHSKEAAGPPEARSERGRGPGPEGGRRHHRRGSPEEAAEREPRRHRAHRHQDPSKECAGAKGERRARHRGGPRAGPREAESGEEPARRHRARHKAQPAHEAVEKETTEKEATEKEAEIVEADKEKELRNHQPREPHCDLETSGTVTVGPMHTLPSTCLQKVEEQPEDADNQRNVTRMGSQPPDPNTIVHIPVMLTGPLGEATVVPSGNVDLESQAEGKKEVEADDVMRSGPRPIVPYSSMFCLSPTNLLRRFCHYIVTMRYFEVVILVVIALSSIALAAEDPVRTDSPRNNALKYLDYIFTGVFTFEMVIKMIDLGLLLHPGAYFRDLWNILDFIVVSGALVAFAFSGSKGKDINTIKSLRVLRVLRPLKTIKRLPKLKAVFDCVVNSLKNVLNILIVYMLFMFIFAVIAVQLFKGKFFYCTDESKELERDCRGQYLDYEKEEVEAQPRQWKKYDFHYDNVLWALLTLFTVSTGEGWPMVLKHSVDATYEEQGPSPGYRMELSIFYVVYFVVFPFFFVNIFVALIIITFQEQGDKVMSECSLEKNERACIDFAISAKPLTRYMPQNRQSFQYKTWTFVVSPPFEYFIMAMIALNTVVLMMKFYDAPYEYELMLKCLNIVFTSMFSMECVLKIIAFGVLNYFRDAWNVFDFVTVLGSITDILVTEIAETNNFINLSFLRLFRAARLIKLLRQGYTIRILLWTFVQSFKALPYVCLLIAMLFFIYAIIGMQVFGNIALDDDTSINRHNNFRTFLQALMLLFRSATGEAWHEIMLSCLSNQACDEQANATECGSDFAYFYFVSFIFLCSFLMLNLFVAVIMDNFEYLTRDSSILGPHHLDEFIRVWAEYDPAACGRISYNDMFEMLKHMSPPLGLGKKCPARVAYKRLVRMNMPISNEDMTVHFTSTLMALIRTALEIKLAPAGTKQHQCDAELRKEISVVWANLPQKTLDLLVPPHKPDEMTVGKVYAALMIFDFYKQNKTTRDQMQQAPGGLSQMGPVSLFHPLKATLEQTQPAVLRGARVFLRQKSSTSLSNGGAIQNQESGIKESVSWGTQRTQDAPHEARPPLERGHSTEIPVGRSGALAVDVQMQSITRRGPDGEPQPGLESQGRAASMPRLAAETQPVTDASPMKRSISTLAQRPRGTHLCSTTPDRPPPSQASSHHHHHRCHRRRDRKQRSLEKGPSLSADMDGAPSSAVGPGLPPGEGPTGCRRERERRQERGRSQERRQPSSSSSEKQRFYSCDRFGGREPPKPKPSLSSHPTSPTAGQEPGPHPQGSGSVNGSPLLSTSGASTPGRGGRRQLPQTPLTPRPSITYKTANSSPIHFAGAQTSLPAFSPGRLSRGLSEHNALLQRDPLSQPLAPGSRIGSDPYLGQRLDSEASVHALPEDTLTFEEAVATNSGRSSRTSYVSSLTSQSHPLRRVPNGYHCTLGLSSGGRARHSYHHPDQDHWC
T5 sequence (Q02410 whole entry): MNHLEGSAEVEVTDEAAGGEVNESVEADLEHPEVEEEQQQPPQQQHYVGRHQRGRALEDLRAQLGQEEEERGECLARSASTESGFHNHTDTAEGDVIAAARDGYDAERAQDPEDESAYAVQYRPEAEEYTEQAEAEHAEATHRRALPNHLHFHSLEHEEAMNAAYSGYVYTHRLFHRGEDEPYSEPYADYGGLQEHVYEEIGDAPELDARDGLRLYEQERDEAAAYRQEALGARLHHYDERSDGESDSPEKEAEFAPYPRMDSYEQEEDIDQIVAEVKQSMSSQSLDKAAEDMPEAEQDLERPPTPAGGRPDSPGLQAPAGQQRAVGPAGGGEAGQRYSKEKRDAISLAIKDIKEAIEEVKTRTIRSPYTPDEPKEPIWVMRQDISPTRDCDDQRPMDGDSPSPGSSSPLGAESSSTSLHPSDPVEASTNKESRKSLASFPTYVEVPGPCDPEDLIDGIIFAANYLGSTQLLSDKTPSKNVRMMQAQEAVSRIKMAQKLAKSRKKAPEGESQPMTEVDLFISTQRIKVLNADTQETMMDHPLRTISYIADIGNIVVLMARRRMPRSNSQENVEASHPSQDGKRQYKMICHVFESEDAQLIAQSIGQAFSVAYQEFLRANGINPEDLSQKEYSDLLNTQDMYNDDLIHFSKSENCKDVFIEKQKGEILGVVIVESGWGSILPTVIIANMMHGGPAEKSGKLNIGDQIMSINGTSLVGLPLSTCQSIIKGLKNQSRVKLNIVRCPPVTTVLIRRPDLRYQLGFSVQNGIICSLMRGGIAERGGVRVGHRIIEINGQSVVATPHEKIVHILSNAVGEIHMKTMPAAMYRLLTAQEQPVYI

[10] = molecular target: T5, Voltage-gated N-type calcium channel alpha-1B subunit/Amyloid beta A4 precursor protein-binding family A member 1; format: protein assay; remark: listed apart in the source
Troponin, cardiac muscle = Troponin, cardiac muscle (Homo sapiens, UniProt P19429+P45379+P63316); assay: Fluorescence-based biochemical high throughput dose response assay for activators of the calcium sensitivity of cardiac Regulated Thin Filaments (RTF). [Related pubchem assays (depositor defined):AID493008, AID493018, AID504382, AID504383]; format: protein-complex assay
[11] = molecular target: Neurotensin receptor type 1 (Homo sapiens, UniProt P30989); format: functional;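 further: Image-based confirmatory dose-response assay measuring agonist activity at NTR1; NTR1-expressing U2OS osteosarcoma cells imaged for beta-arrestin GFP spot formation; agonist potency where compounds increase beta-arrestin recruitment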
Chain of Neurotensin receptor type 1 (P30989 whole entry): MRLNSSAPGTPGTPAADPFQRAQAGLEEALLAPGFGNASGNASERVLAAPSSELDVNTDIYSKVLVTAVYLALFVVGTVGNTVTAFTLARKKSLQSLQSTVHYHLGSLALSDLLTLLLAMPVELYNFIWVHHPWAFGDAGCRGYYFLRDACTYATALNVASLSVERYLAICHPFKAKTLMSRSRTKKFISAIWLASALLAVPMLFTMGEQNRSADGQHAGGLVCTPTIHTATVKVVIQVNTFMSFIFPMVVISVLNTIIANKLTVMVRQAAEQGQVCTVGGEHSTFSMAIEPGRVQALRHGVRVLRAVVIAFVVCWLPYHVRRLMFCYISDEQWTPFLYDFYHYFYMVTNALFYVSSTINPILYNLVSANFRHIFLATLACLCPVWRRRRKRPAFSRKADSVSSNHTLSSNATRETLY

Streptococcus = assay: GAS UMAA2166 growth inhibition – luminescence, BacTiterGlo, counter-screen for streptokinase expression inhibitor project, dose response (AID 1915); format: functional, organism-based;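 further: potency for reduction of bacterial viability or growth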
[12] = Luminescence Cell-Based Dose Retest to Confirm Inhibitors of Cancer Stem Cells. [Related pubchem assays (depositor defined):AID2717, AID2721]; format: functional; conditions: Homo sapiens
[13] = tested on: Streptococcus sp. 'group A'; assay: Streptococcus pyogenes SK(-)GAS viability under kanamycin – luminescence, BacTiterGlo, confirmation, counter-screen for streptokinase expression inhibitor project, dose response (AID 1900); format: functional, organism-based
Streptokinase A = molecular target: T6, Streptokinase A (Streptococcus pyogenes serotype M1, UniProt P10520); assay: viability-normalized secreted streptokinase activity reduction – plasminogen activation absorbance, OD405, dose response (AID 1914); format: functional, Streptococcus pyogenes M1 GAS;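 further: secreted streptokinase activity via plasminogen activation per viability signal from cell pellet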
T6 sequence (P10520 whole entry): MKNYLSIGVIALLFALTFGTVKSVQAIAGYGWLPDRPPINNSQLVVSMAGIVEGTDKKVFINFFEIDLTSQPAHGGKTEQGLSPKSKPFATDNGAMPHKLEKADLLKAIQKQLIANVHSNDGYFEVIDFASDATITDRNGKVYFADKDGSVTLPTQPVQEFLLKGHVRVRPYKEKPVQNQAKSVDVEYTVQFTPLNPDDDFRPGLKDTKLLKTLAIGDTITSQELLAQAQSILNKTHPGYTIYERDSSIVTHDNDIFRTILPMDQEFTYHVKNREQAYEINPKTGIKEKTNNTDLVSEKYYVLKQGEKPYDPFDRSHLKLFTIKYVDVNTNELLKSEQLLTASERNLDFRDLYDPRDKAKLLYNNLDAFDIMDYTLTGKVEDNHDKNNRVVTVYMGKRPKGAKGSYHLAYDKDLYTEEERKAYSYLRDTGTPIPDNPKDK

[14] = viability loss in CEM21 cells – cell-based, CellTiter-Glo luminescence, cherry-picked, cytotoxicity control for viral fusion inhibitor project, dose response (AID 652042); format: functional;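 further: potency for signal decrease meaning cytotoxicity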
[15] = off-target signal loss in HeLa-CEM21 co-culture – HeLa F-luc CTL cells, cherry-picked, counter-screen for HIV-1 Env fusion inhibitor project, dose response (AID 652040); format: functional, cell-based;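 further: potency for signal decrease marking cytotoxic or nonspecific inhibition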
[16] = HEK-293T viability loss after treatment – luminescence, T-cell screen hits, cytotoxicity control for TCR NF-kB inhibitor project, dose response (AID 489026); format: functional, cell-based;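 further: cells exposed to compound about 14 hours before the viability readout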
[17] = blockers of bursicon-stimulated LGR2 cAMP reporter – cell-based, HEK293, CRE-luciferase reporter, cherry pick, set 2, dose response (AID 743343); format: functional;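 further: transfected cells were stimulated with diluted bursicon conditioned medium after compound addition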
[18] = viability loss of HPDE-C7K cells – cell-based, fluorescence, HTS, primary screen (AID 431); format: functional; conditions: Homo sapiens
[19] = blockade of melanocortin 4 receptor signaling – cell-based, plate reader, cherry pick, counter-screen for LGR2 antagonist project, dose response (AID 743444); format: functional;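 further: transfected HEK 293 cells stimulated with alpha-MSH peptide; potency of inhibitors of the alpha-MSH evoked signal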
[20] = viability loss in HEK293 cells – cell-based, plate reader, cherry-picked samples, cytotoxicity control, dose response (AID 743446); format: functional
[21] = toxicity toward HepG2 liver cells – cell-based, plate reader, cherry-pick, antagonist series, cytotoxicity control, dose response (AID 743416); format: functional
[22] = HPDE-C7 pancreatic duct cell viability loss – fluorescence, HTS (AID 430); format: functional, cell-based; conditions: Homo sapiens

Cc1cc(C)cc(OCC(=O)N/N=C\c2cn(C)nc2C)c1
IC50 [1]: > 79.4 µM (inactive)
IC50 [2]: > 79.4 µM (inactive)
IC50 [3]: > 79.4 µM (inactive)

CC(=O)Nc1cc(Cl)ccc1C(=O)O
IC50 (Hexokinase): > 25 µM (inactive)

Cn1c(=O)c2c(nc(N/N=C/c3ccc(OC(=O)c4ccco4)cc3)n2Cc2ccc(F)cc2)n(C)c1=O
EC50 [4]: 3.74 µM (active)
AC50 (HeLa): 43.7 µM (active)

Cn1c(CNC(=O)c2ccco2)nnc1SCC(=O)N1c2ccccc2Sc2ccccc21
IC50 [5]: 5.8 µM (active)
IC50 [6]: 4 µM (active)

CSc1ncccc1C(=O)OCCCC(=O)c1ccc(F)cc1
AC50 (HeLa): 91.9 µM (active)

CCc1ccc(-n2c(SCC(=O)N3Cc4ccccc4CC3C(=O)O)nnc2-c2ccncc2)cc1 (stereo unspecified)
EC50 [7]: > 55.7 µM (not active)
EC50 [8]: > 55.7 µM (not active)

C=C(C)C(=O)Nc1cccc(C2=NOC3(C2)C[C@@H](C(N)=O)N(C(=O)c2ccc(OC)cc2)C3)c1 (stereo partly specified)
IC50 (cells): 38.9 µM (active)
IC50 [9]: > 56.8 µM (not active)
IC50 [10]: > 50 µM (inactive)

CC(C)Sc1nc2cc(Br)ccc2[nH]1
EC50 (Troponin, cardiac muscle): > 71.4 µM (inactive)

COC(=O)Cc1ccc(NC(S)=NNC(=O)C2CC2)cc1
EC50 [7]: > 55.7 µM (not active)
EC50 [8]: > 55.7 µM (not active)

O=c1/c(=C\c2cccc(O)c2)sc2nc(-c3ccccc3)c(-c3ccccc3)n12
EC50 [11]: 27.2 µM (inactive)
EC50 (Streptococcus): 51.1 µM (active)
AC50 [12]: 2.59 µM (active)
EC50 [13]: 3.01 µM (active)
EC50 (Streptokinase A): 4.22 µM (active)

CCC1CCCCN1CCCNC(=O)c1ccc(CS(=O)(=O)Cc2ccccc2F)o1 (stereo unspecified)
IC50 [1]: > 79.4 µM (inactive)
IC50 [2]: > 79.4 µM (inactive)
IC50 [3]: > 79.4 µM (inactive)

Cc1ccc(-n2ncc3c(N4CCN(c5ccccc5)CC4)ncnc32)c(C)c1
EC50 [11]: 9.82 µM (active)
AC50 [14]: 17.7 µM (active)
AC50 [15]: 32.4 µM (active)
IC50 [16]: 29.6 µM (inactive)
AC50 [17]: 13.8 µM (active)
EC50 [18]: 8.48 µM (active)
AC50 [19]: 16.5 µM (active)
AC50 [20]: 14.4 µM (active)
AC50 [21]: 34.7 µM (active)
EC50 [22]: 13.8 µM (active)

O=C(O)c1ccc(Cl)cc1NC(=O)c1coc2ccccc12
IC50 (Hexokinase): > 25 µM (inactive)
